Results as given in patent publication US11173151B2, “Substituted triazole derivatives and uses thereof” (BAYER AKTIENGESELLSCHAFT, priority 2017, dated 2021).
Where two headings read alike, the source gives them in different places.

Key:
human V1a receptor = biological target: T1, human V1a receptor (Homo sapiens, UniProt P37288); test: Cellular in vitro assay for determining vasopressin receptor activity, V1a receptor cell line (CHO, aequorin luminescence); format: cell-based; conditions: for IC50: CHO cell line transfected with human V1a receptor, [Arg]-vasopressin at EC50 concentration, read-out: IC50 hV1a; for ratio IC50 hV2/hV1a: selectivity ratio IC50 hV2 / IC50 hV1a
T1 construct: expressed in transfected cells; host or cells: CHO K1 (ATCC), also stably transfected with a modified aequorin
Outline: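 Luminescence from reconstituted aequorin, reporting intracellular calcium release, was measured immediately after adding [Arg]-vasopressin at EC50 concentration to CHO K1 cells pretreated 10 minutes with graded compound concentrations. Inhibition gave IC50 values.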

human V2 receptor = biological target: T2, human V2 receptor (Homo sapiens, UniProt P30518); test: Cellular in vitro assay for determining vasopressin receptor activity, V2 receptor cell line (CHO, CRE-luciferase); format: cell-based; conditions: CHO cell line transfected with human V2 receptor, [Arg8]-vasopressin at EC50 concentration, read-out: IC50 hV2
T2 construct: expressed in transfected cells; host or cells: CHO K1 (ATCC) expressing firefly luciferase under a CRE-responsive promoter
T2 sequence (P30518 whole entry): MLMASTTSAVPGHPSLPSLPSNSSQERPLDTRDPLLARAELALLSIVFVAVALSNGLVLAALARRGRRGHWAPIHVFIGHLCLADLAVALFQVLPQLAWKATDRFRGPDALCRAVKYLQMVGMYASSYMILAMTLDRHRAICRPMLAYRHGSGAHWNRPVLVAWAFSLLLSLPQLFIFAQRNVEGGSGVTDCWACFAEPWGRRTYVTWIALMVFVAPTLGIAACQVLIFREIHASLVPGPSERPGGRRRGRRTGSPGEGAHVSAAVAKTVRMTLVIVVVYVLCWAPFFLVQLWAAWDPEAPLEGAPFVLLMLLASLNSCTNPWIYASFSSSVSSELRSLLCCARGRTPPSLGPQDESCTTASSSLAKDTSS

T1 sequence (P37288 whole entry): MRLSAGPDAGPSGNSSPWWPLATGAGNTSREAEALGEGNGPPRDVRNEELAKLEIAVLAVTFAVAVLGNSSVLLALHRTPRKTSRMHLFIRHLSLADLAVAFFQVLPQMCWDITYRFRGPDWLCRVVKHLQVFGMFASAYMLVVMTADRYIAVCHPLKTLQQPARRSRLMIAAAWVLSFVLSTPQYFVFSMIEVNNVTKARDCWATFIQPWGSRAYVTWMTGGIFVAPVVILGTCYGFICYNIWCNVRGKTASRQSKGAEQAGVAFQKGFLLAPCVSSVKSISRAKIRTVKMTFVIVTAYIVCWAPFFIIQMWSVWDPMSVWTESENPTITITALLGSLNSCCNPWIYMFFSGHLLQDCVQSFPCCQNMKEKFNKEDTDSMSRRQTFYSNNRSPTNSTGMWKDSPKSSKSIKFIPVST

IC50 (human V1a receptor) [nM] | ratio IC50 hV2/hV1a (human V1a receptor) | IC50 (human V2 receptor; 3 hours) [nM] | IC50 (human V2 receptor) [nM] | SMILES
185 | 10.3 | 1900 |  | C=CC(C)C(=O)Nc1ncccc1-n1cnc(Cn2nc(-c3ccc(Cl)cc3)n(C[C@H](O)C(F)(F)F)c2=O)n1 (stereo partly drawn) [Example 144]
20.5 | 213.0 | 4370 |  | O=C(Nc1cccnc1-n1cnc(Cn2nc(-c3ccc(Cl)cc3)n(C[C@H](O)C(F)(F)F)c2=O)n1)C1CCS(=O)(=O)C1 (mixture of isomers) [Example 50, N-{2-[3-({3-(4-Chlorophenyl)-5-oxo-4-[(2S)-3,3,3-trifluoro-2-hydroxypropyl]-4,5-dihydro-1H-1,2,4-triazol-1-yl}methyl)-1H-1,2,4-triazol-1-yl]pyridin-3-yl}tetrahydrothiophene-3-carboxamide 1,1-dioxide]
230 | 21.7 |  | 5000 | O=C(NCC(O)C(F)(F)F)c1ncccc1-n1cnc(Cn2nc(-c3ccc(Cl)cc3)n(C[C@@H](O)C(F)(F)F)c2=O)n1 (mixture of isomers) [Example 485, 3-[3-({3-(4-Chlorophenyl)-5-oxo-4-[(2R)-3,3,3-trifluoro-2-hydroxypropyl]-4,5-dihydro-1H-1,2,4-triazol-1-yl}methyl)-1H-1,2,4-triazol-1-yl]-N-[3,3,3-trifluoro-2-hydroxypropyl]pyridine-2-carboxamide]
22.5 | 12.4 | 280 |  | O=C(NCCC(F)(F)F)c1cccc(Cl)c1-n1cnc(Cn2nc(-c3ccc(Cl)cc3)n(C[C@H](O)C(F)(F)F)c2=O)n1 [Example 392, 3-Chloro-2-[3-({3-(4-chlorophenyl)-5-oxo-4-[(2S)-3,3,3-trifluoro-2-hydroxypropyl]-4,5-dihydro-1H-1,2,4-triazol-1-yl}methyl)-1H-1,2,4-triazol-1-yl]-N-(3,3,3-trifluoropropyl)benzamide]
4.5 | 90.4 | 407 |  | O=C(Nc1cccnc1-n1cnc(Cn2nc(-c3ccc(Cl)cc3)n(C[C@H](O)C(F)(F)F)c2=O)n1)C1CC1F (stereo partly drawn) [Example 54, N-{2-[3-({3-(4-Chlorophenyl)-5-oxo-4-[(2S)-3,3,3-trifluoro-2-hydroxypropyl]-4,5-dihydro-1H-1,2,4-triazol-1-yl}methyl)-1H-1,2,4-triazol-1-yl]pyridin-3-yl}-2-fluorocyclopropanecarboxamide]
3000 | 5.0 |  | 15000 | COCC1CCCN1C(=O)c1ccncc1-n1nc(Cn2nc(-c3ccc(Cl)cc3)n(C[C@H](O)C(F)(F)F)c2=O)nc1C(=O)N1CCS(=O)(=O)CC1 (mixture of isomers) [Example 522, 5-(4-Chlorophenyl)-2-({5-[(1,1-dioxidothiomorpholin-4-yl)carbonyl]-1-(4-{[2-(methoxymethyl)pyrrolidin-1-yl]carbonyl}pyridin-3-yl)-1H-1,2,4-triazol-3-yl}methyl)-4-[(2S)-3,3,3-trifluoro-2-hydroxypropyl]-2,4-dihydro-3H-1,2,4-triazol-3-one]
100 | 45.5 |  | 4550 | CC1CN(C(=O)c2ncccc2-n2cnc(Cn3nc(-c4ccc(Cl)cc4)n(C[C@H](O)C(F)(F)F)c3=O)n2)CCO1 (mixture of isomers) [Example 440, 5-(4-Chlorophenyl)-2-{[1-(2-{[2-methylmorpholin-4-yl]carbonyl}pyridin-3-yl)-1H-1,2,4-triazol-3-yl]methyl}-4-[(2S)-3,3,3-trifluoro-2-hydroxypropyl]-2,4-dihydro-3H-1,2,4-triazol-3-one]
180 | 177.8 |  | 32000 | NC(=O)[C@H]1CC(F)(F)CN1C(=O)c1cccc(Cl)c1-n1cnc(Cn2nc(-c3ccc(Cl)cc3)n(C[C@@H](O)C(F)(F)F)c2=O)n1 [Example 409, 1-{3-Chloro-2-[3-({3-(4-chlorophenyl)-5-oxo-4-[(2R)-3,3,3-trifluoro-2-hydroxypropyl]-4,5-dihydro-1H-1,2,4-triazol-1-yl}methyl)-1H-1,2,4-triazol-1-yl]benzoyl}-4,4-difluoro-D-prolinamide]
31.5 | 22.2 | 700 |  | Cc1nc(C(=O)Nc2ncccc2-n2cnc(Cn3nc(-c4ccc(Cl)cc4)n(C[C@H](O)C(F)(F)F)c3=O)n2)no1 [Example 108]
7.55 | 141.1 | 1060 |  | CC1CCN(C(=O)c2ccccc2-n2cnc(Cn3nc(-c4ccc(Cl)cc4)n(C[C@H](O)C(F)(F)F)c3=O)n2)CC1 [Example 347, 5-(4-Chlorophenyl)-2-[(1-{2-[(4-methylpiperidin-1-yl)carbonyl]phenyl}-1H-1,2,4-triazol-3-yl)methyl]-4-[(2S)-3,3,3-trifluoro-2-hydroxypropyl]-2,4-dihydro-3H-1,2,4-triazol-3-one]
5.7 | 386.0 | 2200 |  | CC1(C)CN(C(=O)c2ccccc2-n2cnc(Cn3nc(-c4ccc(Cl)cc4)n(C[C@H](O)C(F)(F)F)c3=O)n2)CCO1 [Example 287, 5-(4-Chlorophenyl)-2-[(1-{2-[(2,2-dimethylmorpholin-4-yl)carbonyl]phenyl}-1H-1,2,4-triazol-3-yl)methyl]-4-[(2S)-3,3,3-trifluoro-2-hydroxypropyl]-2,4-dihydro-3H-1,2,4-triazol-3-one]
2 | 485.0 | 970 |  | O=C(c1ccccc1-n1cnc(Cn2nc(-c3ccc(Cl)cc3)n(C[C@H](O)C(F)(F)F)c2=O)n1)N1CCCOCC1 [Example 284, 5-(4-Chlorophenyl)-2-({1-[2-(1,4-oxazepan-4-ylcarbonyl)phenyl]-1H-1,2,4-triazol-3-yl}methyl)-4-[(2S)-3,3,3-trifluoro-2-hydroxypropyl]-2,4-dihydro-3H-1,2,4-triazol-3-one]
23 | 27.0 | 620 |  | O=C(Nc1cccnc1-n1cnc(Cn2nc(-c3ccc(Cl)cc3)n(C[C@H](O)C(F)(F)F)c2=O)n1)C1CC1(F)F (single isomer, unassigned) [Example 42]
36 | 51.4 | 1850 |  | O=C(Cc1cccnc1)Nc1ncccc1-n1cnc(Cn2nc(-c3ccc(Cl)cc3)n(C[C@H](O)C(F)(F)F)c2=O)n1 [Example 89]
1.21 | 55.8 | 67.5 |  | O=C(Nc1cccc(O)c1)c1ccccc1-n1cnc(Cn2nc(-c3ccc(Cl)cc3)n(C[C@H](O)C(F)(F)F)c2=O)n1 [Example 227, 2-[3-({3-(4-Chlorophenyl)-5-oxo-4-[(2S)-3,3,3-trifluoro-2-hydroxypropyl]-4,5-dihydro-1H-1,2,4-triazol-1-yl}methyl)-1H-1,2,4-triazol-1-yl]-N-(3-hydroxyphenyl)benzamide]
13 | 43.8 | 570 |  | CC1CCC(NC(=O)c2ccccc2-n2cnc(Cn3nc(-c4ccc(Cl)cc4)n(C[C@H](O)C(F)(F)F)c3=O)n2)CC1 (stereo partly drawn) [Example 321, 2-[3-({3-(4-Chlorophenyl)-5-oxo-4-[(2S)-3,3,3-trifluoro-2-hydroxypropyl]-4,5-dihydro-1H-1,2,4-triazol-1-yl}methyl)-1H-1,2,4-triazol-1-yl]-N-(4-methylcyclohexyl)benzamide]
120 | 65.4 |  | 7850 | O=C(c1ncccc1-n1cnc(Cn2nc(-c3ccc(Cl)cc3)n(C[C@H](O)C(F)(F)F)c2=O)n1)N1CCOC(C(F)(F)F)C1 (mixture of isomers) [Example 444, 5-(4-Chlorophenyl)-4-[(2S)-3,3,3-trifluoro-2-hydroxypropyl]-2-{[1-(2-{[2-(trifluoromethyl)morpholin-4-yl]carbonyl}pyridin-3-yl)-1H-1,2,4-triazol-3-yl]methyl}-2,4-dihydro-3H-1,2,4-triazol-3-one]
39 | 50.0 | 1950 |  | CC(C(=O)Nc1ncccc1-n1cnc(Cn2nc(-c3ccc(Cl)cc3)n(C[C@H](O)C(F)(F)F)c2=O)n1)n1cncn1 (stereo partly drawn) [Example 155]
100 | 24.0 | 2400 |  | CC1=NOC(C)(C(=O)Nc2ncccc2-n2cnc(Cn3nc(-c4ccc(Cl)cc4)n(C[C@H](O)C(F)(F)F)c3=O)n2)C1 (stereo partly drawn) [Example 142]
2.7 | 425.9 | 1150 |  | CN(C(=O)c1ccccc1-n1cnc(Cn2nc(-c3ccc(Cl)cc3)n(C[C@H](O)C(F)(F)F)c2=O)n1)C1CCCC1 [Example 276, 2-[3-({3-(4-Chlorophenyl)-5-oxo-4-[(2S)-3,3,3-trifluoro-2-hydroxypropyl]-4,5-dihydro-1H-1,2,4-triazol-1-yl}methyl)-1H-1,2,4-triazol-1-yl]-N-cyclopentyl-N-methylbenzamide]
5.3 | 339.6 | 1800 |  | CC1(C)CCN(C(=O)c2ccccc2-n2cnc(Cn3nc(-c4ccc(Cl)cc4)n(C[C@H](O)C(F)(F)F)c3=O)n2)CC1 [Example 277, 5-(4-Chlorophenyl)-2-[(1-{2-[(4,4-dimethylpiperidin-1-yl)carbonyl]phenyl}-1H-1,2,4-triazol-3-yl)methyl]-4-[(2S)-3,3,3-trifluoro-2-hydroxypropyl]-2,4-dihydro-3H-1,2,4-triazol-3-one]
31.5 | 71.4 | 2250 |  | CS(=O)(=O)NCC(=O)Nc1cccnc1-n1cnc(Cn2nc(-c3ccc(Cl)cc3)n(C[C@H](O)C(F)(F)F)c2=O)n1 [Example 53, N-{2-[3-({3-(4-Chlorophenyl)-5-oxo-4-[(2S)-3,3,3-trifluoro-2-hydroxypropyl]-4,5-dihydro-1H-1,2,4-triazol-1-yl}methyl)-1H-1,2,4-triazol-1-yl]pyridin-3-yl}-N^2-(methylsulfonyl)glycinamide]
